Source: EPA's ToxRefDB 2

Legend:
rat [1] = conditions: Combined chronic toxicity/carcinogenicity, sprague dawley, Oral, Feed, dose end: 104 week
dog [2] = conditions: Subchronic oral toxicity in nonrodent, beagle, Feed, dose end: 90 day, group: systemic, systemic / hematology / methemoglobin / methemoglobin
dog [3] = conditions: Chronic toxicity, beagle, Oral, Feed, dose end: 52 week, group: systemic
rat [4] = conditions: Subchronic oral toxicity in rodents, wistar, Feed, dose end: 13 week, group: systemic
rat [5] = conditions: Subchronic oral toxicity in rodents, wistar, Feed, dose end: 13 week
rat [6] = conditions: Prenatal developmental toxicity study, wistar, Oral, Gavage/Intubation, dose end: 15 GD
rat [7] = conditions: Prenatal developmental toxicity study, wistar, Oral, Gavage/Intubation, dose end: 15 GD; remark: listed apart in the source
mouse [8] = conditions: Carcinogenicity, other, Oral, [Not Specified], dose end: 104 week, group: systemic
dog [9] = conditions: Chronic toxicity, beagle, Oral, Feed, dose end: 80 day, group: systemic
rat [10] = conditions: Multigenerational reproductive toxicity study, other, Oral, Feed, dose end: 2 generation
rat [11] = conditions: Combined chronic toxicity/carcinogenicity, wistar, Oral, Feed, dose end: 106 week, group: systemic
rabbit [12] = conditions: Prenatal developmental toxicity study, chinchilla, Oral, Gavage/Intubation, dose end: 27 GD
mouse [13] = conditions: Prenatal developmental toxicity study, cd1, Oral, Gavage/Intubation, dose end: 15 GD
rabbit [14] = conditions: Prenatal developmental toxicity study, new zealand white, Oral, Gavage/Intubation, dose end: 19 GD, group: maternal
[15] = group: cholinesterase, cholinesterase / cholinesterase / cholinesterase / brain cholinesterase (che)
[16] = group: cholinesterase, cholinesterase / cholinesterase / cholinesterase / erythrocyte cholinesterase (che) + cholinesterase / cholinesterase / cholinesterase / …
[17] = group: systemic, systemic / hematology / erythrocyte (rbc) count differential / erythrocyte (rbc) + systemic / hematology / hematocrit (hct) / hematocrit (…
[18] = systemic / hematology / methemoglobin / methemoglobin
[19] = systemic / hematology / methemoglobin / methemoglobin + systemic / clinical chemistry / triiodothyronine (t3) / triiodothyronine (t3), total
[20] = systemic / clinical chemistry / thyroxine (t4) / thyroxine (t4), total + systemic / hematology / methemoglobin / methemoglobin + systemic / …
[21] = group: cholinesterase, cholinesterase / cholinesterase / cholinesterase / brain cholinesterase (che) + cholinesterase / cholinesterase / cholinesterase / …
[22] = group: systemic, systemic / hematology / anemia / anemia - macrocytic + systemic / hematology / erythrocyte (rbc) count differential / erythrocyte (rbc) + …
[23] = group: developmental, developmental / developmental malformation / bone / absent + developmental / developmental malformation / bone / bipartite ossification + …
[24] = group: maternal, systemic / in life observation / body weight / body weight gain + systemic / in life observation / food consumption / food consumption
[25] = group: developmental, developmental / developmental malformation / bone / incomplete ossification + developmental / developmental malformation / bone / unossified…
[26] = group: maternal, systemic / hematology / methemoglobin / methemoglobin
[27] = group: maternal, systemic / hematology / methemoglobin / methemoglobin + systemic / hematology / heinz body / heinz body + systemic / in life observation / …
[28] = systemic / hematology / anemia / anemia - heinz body + systemic / in life observation / body weight / body weight
[29] = systemic / hematology / methemoglobin / methemoglobin + systemic / urinalysis / appearance and color / appearance and color
[30] = group: offspring, systemic / organ weight / kidney / relative to body weight + systemic / organ weight / liver / relative to body weight
[31] = group: parental, systemic / organ weight / spleen / absolute + systemic / organ weight / spleen / relative to body weight + systemic / hematology / anemia / …
[32] = group: parental, systemic / organ weight / spleen / absolute + systemic / organ weight / spleen / relative to body weight + systemic / in life observation / …
[33] = group: reproductive, reproductive / offspring survival early / litter size / litter size
[34] = systemic / hematology / anemia / anemia - hemolytic + systemic / hematology / erythrocyte (rbc) count differential / erythrocyte (rbc) + …
[35] = systemic / pathology microscopic / thyroid gland / hyperplasia
[36] = group: developmental, systemic / in life observation / body weight / fetal weight + developmental / developmental malformation / bone / unossified
[37] = group: maternal, systemic / in life observation / body weight / body weight gain + systemic / in life observation / food consumption / food consumption + …
[38] = group: developmental, systemic / in life observation / body weight / fetal weight
[39] = group: maternal, reproductive / reproductive performance / resorptions / resorptions + systemic / in life observation / body weight / body weight gain + …
[40] = systemic / in life observation / mortality / mortality + reproductive / reproductive performance / premature delivery / premature delivery

## CCOC(=O)Nc1cccc(OC(=O)Nc2ccccc2)c1 [Desmedipham]
Rat [1]; [15]
  LOAEL: > 54 mg/kg/day
  NOAEL: ≥ 54 mg/kg/day
Rat [1]; [16]
  LEL: 25 mg/kg/day
  NEL: 5.9 mg/kg/day
Rat [1]; [17]
  LOAEL: 54 mg/kg/day
  NEL: 4.7 mg/kg/day
  NOAEL: 18 mg/kg/day
Rat [1]; group: systemic, systemic / pathology microscopic / lung / focal cellular change + systemic / pathology microscopic / seminal vesicle / secretory fluid
  LEL: 18 mg/kg/day
Dog [2]
  LEL: 4.97 mg/kg/day
  LOAEL: 4.97 mg/kg/day
  NEL: 0.17 mg/kg/day
  NOAEL: 0.17 mg/kg/day
Dog [3]; [18]
  LOAEL: 9.6 mg/kg/day
  NOAEL: < 9.6 mg/kg/day
Dog [3]; [19]
  LEL: 9.6 mg/kg/day
  NEL: < 9.6 mg/kg/day
Rat [4]; [20]
  LOAEL: 26 mg/kg/day
  NOAEL: 5.2 mg/kg/day
Rat [4]; [18]
  LEL: 5.2 mg/kg/day
Rat [4]; systemic / hematology / methemoglobin / methemoglobin + systemic / clinical chemistry / thyroxine (t4) / thyroxine (t4), total + systemic / …
  NEL: 2.6 mg/kg/day
Rat [5]; [21]
  LEL: 15 mg/kg/day
  LOAEL: 15 mg/kg/day
  NEL: < 15 mg/kg/day
  NOAEL: < 15 mg/kg/day
Rat [5]; [22]
  LEL: 15 mg/kg/day
  LOAEL: 15 mg/kg/day
  NEL: < 15 mg/kg/day
  NOAEL: < 15 mg/kg/day
Rat [6]; [23]
  LEL: 1000 mg/kg/day
  LOAEL: 1000 mg/kg/day
  NEL: 100 mg/kg/day
  NOAEL: 100 mg/kg/day
Rat [6]; [24]
  LEL: 1000 mg/kg/day
  LOAEL: 1000 mg/kg/day
  NEL: 100 mg/kg/day
  NOAEL: 100 mg/kg/day
Rat [7]; [25]
  LEL: 500 mg/kg/day
  LOAEL: 500 mg/kg/day
  NEL: 100 mg/kg/day
  NOAEL: 100 mg/kg/day
Rat [7]; [26]
  LEL: 100 mg/kg/day
  LOAEL: 100 mg/kg/day
Rat [7]; [27]
  NEL: 10 mg/kg/day
  NOAEL: 10 mg/kg/day
Mouse [8]; systemic / hematology / anemia / anemia - heinz body
  LOAEL: 109 mg/kg/day
Mouse [8]; [28]
  LEL: 109 mg/kg/day
  NEL: 21.7 mg/kg/day
  NOAEL: 21.7 mg/kg/day
Dog [9]; [18]
  LOAEL: 12.5 mg/kg/day
  NOAEL: < 12.5 mg/kg/day
Dog [9]; [29]
  LEL: 12.5 mg/kg/day
  NEL: < 12.5 mg/kg/day
Rat [10]; group: offspring, systemic / in life observation / body weight / offspring (pup) weight
  LOAEL: 110 mg/kg/day
Rat [10]; group: offspring, systemic / in life observation / body weight / offspring (pup) weight + systemic / organ weight / heart / absolute + systemic / organ weight…
  NOAEL: 20 mg/kg/day
Rat [10]; [30]
  LEL: 4 mg/kg/day
  NEL: < 4 mg/kg/day
Rat [10]; [31]
  LEL: 20 mg/kg/day
  LOAEL: 20 mg/kg/day
Rat [10]; [32]
  NEL: 4 mg/kg/day
  NOAEL: 4 mg/kg/day
Rat [10]; [33]
  LEL: 110 mg/kg/day
  LOAEL: > 110 mg/kg/day
  NEL: 20 mg/kg/day
  NOAEL: ≥ 110 mg/kg/day
Rat [11]; [34]
  LOAEL: 16.1 mg/kg/day
  NOAEL: 3.3 mg/kg/day
Rat [11]; [35]
  LEL: 3.18 mg/kg/day
  NEL: < 3.18 mg/kg/day
Rabbit [12]; [36]
  LEL: 450 mg/kg/day
  LOAEL: 450 mg/kg/day
  NEL: 150 mg/kg/day
  NOAEL: 150 mg/kg/day
Rabbit [12]; group: maternal, systemic / in life observation / body weight / body weight gain
  LOAEL: 450 mg/kg/day
Rabbit [12]; [37]
  LEL: 450 mg/kg/day
  NEL: 150 mg/kg/day
  NOAEL: 150 mg/kg/day

## [O]=[Cr](=[O])([OH])[OH] [Chromic(VI) acid]
Mouse [13]; [38]
  LEL: 120 mg/kg/day
  LOAEL: > 120 mg/kg/day
  NEL: 60 mg/kg/day
  NOAEL: ≥ 120 mg/kg/day
Mouse [13]; [39]
  LEL: 120 mg/kg/day
  LOAEL: 120 mg/kg/day
  NEL: 60 mg/kg/day
  NOAEL: 60 mg/kg/day
Rabbit [14]; systemic / in life observation / mortality / mortality
  LOAEL: 2 mg/kg/day
Rabbit [14]; [40]
  LEL: 2 mg/kg/day
  NEL: 0.5 mg/kg/day
  NOAEL: 0.5 mg/kg/day
